ChEMBL document CHEMBL1938270, “Synthesis and antifungal activity of natural product-based 6-alkyl-2,3,4,5-tetrahydropyridines” (J Nat Prod, 2011)
Converted amounts (≈) assume the structure as drawn. The source made the active and inactive calls. The calls are words filed in the database; no cut-off is given here.

Key:
[1] = system: KB; assay: Cytotoxicity against human KB cells at 10 ug/ml by neutral red assay; assay type: cell-based
[2] = system: SK-OV-3; assay: Cytotoxicity against human SKOV3 cells at 10 ug/ml by neutral red assay; assay type: cell-based
[3] = system: SK-MEL; assay: Cytotoxicity against human SK-MEL cells at 10 ug/ml by neutral red assay; assay type: cell-based
[4] = system: Pichia kudriavzevii; assay: Antifungal activity against Candida Krusei ATCC 6258 after 24 to 72 hrs by M27-A2 CLSI method; assay type: functional
[5] = system: Vero; assay: Cytotoxicity against african green monkey Vero cells at 10 ug/ml by neutral red assay; assay type: cell-based; details: chlorocebus sabaeus
[6] = system: BT-549; assay: Cytotoxicity against human BT549 cells at 10 ug/ml by neutral red assay; assay type: cell-based
[7] = system: Cryptococcus neoformans; assay: Antifungal activity against Cryptococcus neoformans ATCC 90113 after 24 to 72 hrs by M27-A2 CLSI method; assay type: functional
[8] = system: Nakaseomyces glabratus; assay: Antifungal activity against Candida glabrata ATCC 90030 after 24 to 72 hrs by M27-A2 CLSI method; assay type: functional
[9] = system: Candida albicans; assay: Antifungal activity against Candida albicans ATCC 90028 at 20 ug/ml after 24 to 72 hrs by M27-A2 CLSI method; assay type: functional, organism-based
[10] = system: LLC-PK1; assay: Cytotoxicity against pig LLC-PK1 cells at 10 ug/ml by neutral red assay; assay type: cell-based, Sus scrofa
[11] = system: Pichia kudriavzevii; assay: Antifungal activity against Candida Krusei ATCC 6258 at 20 ug/ml after 24 to 72 hrs by M27-A2 CLSI method; assay type: functional, organism-based
[12] = system: Nakaseomyces glabratus; assay: Antifungal activity against Candida glabrata ATCC 90030 at 20 ug/ml after 24 to 72 hrs by M27-A2 CLSI method; assay type: functional, organism-based
[13] = system: Cryptococcus neoformans; assay: Antifungal activity against Cryptococcus neoformans ATCC 90113 at 20 ug/ml after 24 to 72 hrs by M27-A2 CLSI method; assay type: functional, organism-based
[14] = system: Aspergillus fumigatus; assay: Antifungal activity against Aspergillus fumigatus ATCC 204305 at 20 ug/ml after 24 to 72 hrs by M27-A2 CLSI method; assay type: functional, organism-based
[15] = system: Aspergillus fumigatus; assay: Antifungal activity against Aspergillus fumigatus ATCC 204305 after 24 to 72 hrs by M27-A2 CLSI method; assay type: functional, organism-based
[16] = system: Candida albicans; assay: Antifungal activity against Candida albicans ATCC 90028 after 24 to 72 hrs by M27-A2 CLSI method; assay type: functional

SMILES	MIC [4] [µg/mL]	MIC [7] [µg/mL]	MIC [8] [µg/mL]	MIC [9]	Activity [1]	Activity [2]	Activity [3]	MFC [4] [µg/mL]	Activity [5]	Activity [6]	MFC [7] [µg/mL]	MFC [8] [µg/mL]	Activity [10]	further results
CCCCCCCCCCCCC1=NCCCC1	–	–	–	–	–	–	–	–	–	–	–	–	–	Activity [13]: inactive; Activity [12]: inactive; Activity [14]: inactive; Activity [15]: inactive; Activity [9]: inactive
C[C@@H]1[C@H](O)[C@@H](C)/C=C/C=C/C=C/C=C/C=C/C=C/C=C/[C@H](O[C@@H]2O[C@H](C)[C@@H](O)[C@H](N)[C@@H]2O)C[C@@H]2O[C@](O)(C[C@@H](O)C[C@@H](O)[C@H](O)CC[C@@H](O)C[C@@H](O)CC(=O)O[C@H]1C)C[C@H](O)[C@H]2C(=O)O [AMPHOTERICIN B]	1.25 (≈ 1.35 µM)	0.47 (≈ 0.509 µM)	0.63 (≈ 0.682 µM)	–	–	–	–	1.25 (≈ 1.35 µM)	–	–	0.47 (≈ 0.509 µM)	0.94 (≈ 1.02 µM)	–	MIC [16]: 0.47 µg/mL (≈ 0.509 µM)
CCCCCCCCCCCCCC1=NCCCC1	–	–	–	–	–	–	–	–	–	–	–	–	–	Activity [13]: inactive; Activity [12]: inactive; Activity [14]: inactive; Activity [15]: inactive; Activity [9]: inactive

Now from value to molecule, other results behind:

MIC [4] [µg/mL]	MIC [7] [µg/mL]	MIC [8] [µg/mL]	MIC [9]	SMILES	Activity [1]	Activity [2]	Activity [3]	MFC [4] [µg/mL]	Activity [5]	Activity [6]	MFC [7] [µg/mL]	MFC [8] [µg/mL]	Activity [10]	further results
10 (≈ 34.1 µM)	11.2 (≈ 38.2 µM)	10 (≈ 34.1 µM)	inactive	CCCCCCCCCCCCCCCC1=NCCCC1	Non-toxic	Non-toxic	Non-toxic	15 (≈ 51.1 µM)	Non-toxic	Non-toxic	12.5 (≈ 42.6 µM)	15 (≈ 51.1 µM)	Non-toxic	–
–	10 (≈ 35.8 µM)	–	inactive	CCCCCCCCCCCCCCC1=NCCCC1	Non-toxic	Non-toxic	Non-toxic	–	Non-toxic	Non-toxic	10 (≈ 35.8 µM)	–	Non-toxic	MIC [11]: inactive; MIC [12]: inactive
15 (≈ 46.6 µM)	2.5 (≈ 7.77 µM)	5 (≈ 15.5 µM)	inactive	CCCCCCCCCCCCCCCCCC1=NCCCC1	Non-toxic	Non-toxic	Non-toxic	15 (≈ 46.6 µM)	Non-toxic	Non-toxic	3.8 (≈ 11.8 µM)	7.5 (≈ 23.3 µM)	Non-toxic	–
–	10 (≈ 29.8 µM)	10 (≈ 29.8 µM)	inactive	CCCCCCCCCCCCCCCCCCC1=NCCCC1	Non-toxic	Non-toxic	Non-toxic	–	Non-toxic	Non-toxic	15 (≈ 44.7 µM)	15 (≈ 44.7 µM)	Non-toxic	MIC [11]: inactive
7.5 (≈ 24.4 µM)	3.8 (≈ 12.4 µM)	7.5 (≈ 24.4 µM)	–	CCCCCCCCCCCCCCCCC1=NCCCC1	Non-toxic	Non-toxic	Non-toxic	7.5 (≈ 24.4 µM)	Non-toxic	Non-toxic	3.8 (≈ 12.4 µM)	7.5 (≈ 24.4 µM)	Non-toxic	MFC [16]: 15 µg/mL (≈ 48.8 µM); MIC [16]: 15 µg/mL (≈ 48.8 µM)
